In ChEMBL document CHEMBL1142020, “2-substituted-4-aryl-6,7,8,9-tetrahydro-5H-pyrimido[4,5-b][1,5]oxazocin-5-one as a structurally new NK1 antagonist” (2005):

Legend:
[1] = Effective bladder capacity increasing effect of compound (0.3 mg/kg i.v.) expressed as the ratio of increase in effective bladder capacity compared to saline treated animals in vivo; format: functional, Cavia porcellus
[2] = target: Substance-P receptor (Cavia porcellus) (UniProt P30547); test: Antagonist activity against tachykinin receptor 1 activity in guinea pig ileum in vitro; format: functional, tissue-based
Substance-P receptor (Cavia porcellus), sequence (P30547 whole entry): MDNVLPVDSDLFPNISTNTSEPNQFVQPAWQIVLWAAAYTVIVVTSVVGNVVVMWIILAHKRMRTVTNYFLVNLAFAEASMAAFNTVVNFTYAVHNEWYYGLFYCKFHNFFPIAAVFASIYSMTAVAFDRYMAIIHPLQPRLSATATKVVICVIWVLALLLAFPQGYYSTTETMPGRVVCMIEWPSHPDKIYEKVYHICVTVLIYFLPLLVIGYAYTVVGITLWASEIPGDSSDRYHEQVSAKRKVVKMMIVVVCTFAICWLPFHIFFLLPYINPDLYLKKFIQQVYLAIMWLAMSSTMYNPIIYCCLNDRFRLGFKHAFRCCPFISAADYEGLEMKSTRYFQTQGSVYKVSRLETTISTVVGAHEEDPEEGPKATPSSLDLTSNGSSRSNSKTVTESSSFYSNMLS

| Kb [2] [nM] | SMILES | Effect [1] [%] |
| --- | --- | --- |
| – | Cc1ccccc1-c1cc(N2CCC(N3CCCC3)CC2)nc2c1C(=O)N(Cc1cc(C(F)(F)F)cc(C(F)(F)F)c1)CCCO2 | 24.2 |
| 0.166 | Cc1ccccc1-c1nc(N2CCC(N3CCCC3)CC2)nc2c1C(=O)N(Cc1cc(C(F)(F)F)cc(C(F)(F)F)c1)CCCO2 | 33.4 |
| 0.339 | Cc1ccccc1-c1nc(N2CCC(N3CCCC3)CC2)cc2c1C(=O)N(Cc1cc(C(F)(F)F)cc(C(F)(F)F)c1)CCCO2 | 3.97 |
| 0.27 | Cc1ccc(-c2c3n(c(=O)c4ncccc24)CC[C@@H](C)CN(Cc2cc(C(F)(F)F)cc(C(F)(F)F)c2)C3=O)cc1 | 12 |
